Measurements reported in patent US12448369B2 (Edgewise Therapeutics, Inc., priority 2023, dated 2025).

Molecular target: T1, Porcine ventricle myofibrils (ventricular myosin ATPase) (Sus scrofa, UniProt P79293)
T1 construct: Myofibrils from porcine cardiac muscle was isolated from the left ventricle of Yucatan minipigs; tissue Exemplar Genetics; host or cells: left ventricle of Yucatan minipigs, myofibrils prepared in house
Test: Myofibril ATPase assay, porcine ventricle myofibrils
Type: biochemical, porcine (Yucatan minipigs)
Conditions: Y75 value (no ‡ mark); porcine ventricle myofibrils
Method in brief: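 Read-out: A340 kinetic, NADH consumption coupled to ADP via PK-LDH, 75 min. Yucatan minipig LV myofibrils, pCa buffer (PIPES/CaCl2/EGTA, pH 7.0). Linear-regression slope (mAU/min), vehicle = 100%, 4PL fit; Y75 or Y125 reported.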

T1 sequence (P79293 whole entry): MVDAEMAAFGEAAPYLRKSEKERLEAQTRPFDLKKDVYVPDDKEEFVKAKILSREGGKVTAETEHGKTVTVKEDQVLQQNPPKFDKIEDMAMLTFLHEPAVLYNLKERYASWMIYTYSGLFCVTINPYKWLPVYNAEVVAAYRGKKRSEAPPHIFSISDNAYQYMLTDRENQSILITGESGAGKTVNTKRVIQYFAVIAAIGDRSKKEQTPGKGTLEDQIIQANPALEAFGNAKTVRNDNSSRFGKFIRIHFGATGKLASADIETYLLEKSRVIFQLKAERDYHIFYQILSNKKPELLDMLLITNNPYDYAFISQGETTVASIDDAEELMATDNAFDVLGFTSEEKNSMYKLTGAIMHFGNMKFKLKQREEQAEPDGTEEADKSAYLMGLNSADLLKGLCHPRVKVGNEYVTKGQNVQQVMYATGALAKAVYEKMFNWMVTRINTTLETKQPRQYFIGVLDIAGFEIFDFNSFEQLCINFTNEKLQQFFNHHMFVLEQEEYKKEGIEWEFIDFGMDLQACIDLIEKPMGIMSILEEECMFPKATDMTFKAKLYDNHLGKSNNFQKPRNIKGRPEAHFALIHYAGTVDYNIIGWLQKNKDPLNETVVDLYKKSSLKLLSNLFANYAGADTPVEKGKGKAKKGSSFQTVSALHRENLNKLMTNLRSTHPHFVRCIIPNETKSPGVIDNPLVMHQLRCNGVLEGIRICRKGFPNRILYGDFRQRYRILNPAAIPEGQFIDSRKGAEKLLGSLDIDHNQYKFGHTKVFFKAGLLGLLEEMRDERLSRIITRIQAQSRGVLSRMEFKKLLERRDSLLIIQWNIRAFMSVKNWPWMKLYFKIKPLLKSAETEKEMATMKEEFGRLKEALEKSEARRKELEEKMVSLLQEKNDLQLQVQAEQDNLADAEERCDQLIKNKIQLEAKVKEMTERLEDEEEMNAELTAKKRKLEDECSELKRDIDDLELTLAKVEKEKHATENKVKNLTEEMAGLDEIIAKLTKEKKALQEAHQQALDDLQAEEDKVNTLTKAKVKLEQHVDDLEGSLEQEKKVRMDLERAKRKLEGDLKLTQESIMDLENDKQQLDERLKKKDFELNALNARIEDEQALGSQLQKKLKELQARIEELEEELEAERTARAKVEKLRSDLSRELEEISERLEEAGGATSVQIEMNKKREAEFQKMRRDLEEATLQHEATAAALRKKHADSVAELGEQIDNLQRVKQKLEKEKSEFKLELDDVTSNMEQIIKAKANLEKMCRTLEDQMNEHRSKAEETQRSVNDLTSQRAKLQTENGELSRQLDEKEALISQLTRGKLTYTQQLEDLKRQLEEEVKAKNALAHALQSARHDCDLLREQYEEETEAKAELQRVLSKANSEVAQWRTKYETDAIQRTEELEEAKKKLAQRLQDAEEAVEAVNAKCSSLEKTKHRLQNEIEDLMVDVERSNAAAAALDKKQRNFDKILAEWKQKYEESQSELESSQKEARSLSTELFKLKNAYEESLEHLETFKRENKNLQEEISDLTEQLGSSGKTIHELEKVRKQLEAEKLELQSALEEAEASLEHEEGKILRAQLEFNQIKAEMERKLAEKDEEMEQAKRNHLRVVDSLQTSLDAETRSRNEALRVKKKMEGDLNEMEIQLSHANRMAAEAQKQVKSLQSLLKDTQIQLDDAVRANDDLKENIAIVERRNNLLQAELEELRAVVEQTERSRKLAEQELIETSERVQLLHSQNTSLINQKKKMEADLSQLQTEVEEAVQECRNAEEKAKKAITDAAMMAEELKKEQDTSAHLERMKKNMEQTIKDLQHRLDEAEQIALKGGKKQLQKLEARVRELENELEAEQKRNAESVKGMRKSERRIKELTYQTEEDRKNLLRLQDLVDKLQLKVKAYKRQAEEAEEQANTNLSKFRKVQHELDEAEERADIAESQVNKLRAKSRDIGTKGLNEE

Going from `Cc1c(CC(=O)N[C@H](C)c2ncc(C#N)cc2F)c(=O)[nH]c2ccc(F)c(Cl)c12` (single isomer, unassigned) [compound 2051] to `Cc1c(CC(=O)N[C@H](C)c2ncc(C#N)cc2F)c(=O)[nH]c2cc(F)c(F)cc12` [compound 1104], the “Ventricular EC25” value falls from 600 nM to 210 nM (2.9-fold).

Going from `Cc1ccncc1[C@H](C)NC(=O)Cc1c(C)c2c(C)c(F)ccc2[nH]c1=O` [compound 1047] to `Cc1c(CC(=O)N[C@@H](C)c2ccc(C#N)cc2F)c(=O)[nH]c2ccc(F)c(C(F)(F)F)c12` [compound 38], the “Ventricular EC25” value falls from 1130 nM to 60 nM (19-fold).

`C[C@H](NC(=O)C1(c2cc3c(F)c(F)ccc3[nH]c2=O)CC1)c1nccc(C#N)n1` (single isomer, unassigned) [compound 2506] and `Cc1c(C2(C(=O)N[C@H](C)c3cc(C#N)ccn3)CC2)c(=O)[nH]c2ccc(F)c(F)c12` (single isomer, unassigned) [compound 2539] are the same in “Ventricular EC25” value: 100000 nM for the first, 100000 nM for the second.

Compared with `Cc1c(C(C)C(=O)N[C@@H](C)c2ccc(F)cc2F)c(=O)[nH]c2ccc(F)cc12` (stereo partly drawn) [compound 127], `CC(C(=O)N[C@@H](C)c1ccc(F)cc1F)c1cc2c(Br)cccc2[nH]c1=O` (stereo partly drawn) [compound 94] is 32-fold higher in “Ventricular EC25” value: 3120 nM for the first, 100000 nM for the second.

First: Cc1c(C2(C(=O)N[C@@H](C)c3ncc(C#N)cn3)CC2)c(=O)[nH]c2ccc(F)c(C#N)c12 (single isomer, unassigned) [compound 2532]
Second: Cc1c(C2(C(=O)N[C@@H](C)c3ncc(C#N)cc3F)CC2)c(=O)[nH]c2ccc(F)cc12 (single isomer, unassigned) [compound 2597]
The “Ventricular EC25” value of the first is 120-fold higher: 45960 nM for the first, 390 nM for the second.

First: Cc1nc(C#N)cnc1[C@@H](C)NC(=O)Cc1cc2cc(F)c(F)cc2[nH]c1=O (single isomer, unassigned) [compound 5]
Second: Cc1nc(C#N)cnc1[C@@H](C)NC(=O)Cc1c(C)c2cc(F)ccc2[nH]c1=O [compound 1068]
The “Ventricular EC25” value of the first is 69-fold higher: 4130 nM for the first, 60 nM for the second.

Going from `Cc1c(CC(=O)N[C@H](C)c2cnc(C#N)nc2)c(=O)[nH]c2cc(F)c(F)cc12` (single isomer, unassigned) [compound 2074] to `C[C@H](NC(=O)Cc1c(C#N)c2cc(F)ccc2[nH]c1=O)c1ncc(C#N)cc1F` [compound 1095], the “Ventricular EC25” value falls from 10130 nM to 420 nM (24-fold).

`C[C@@H](NC(=O)Cc1c(C2CC2)c2c(F)c(F)ccc2[nH]c1=O)c1ccc(C#N)nn1` (single isomer, unassigned) [compound 2065] was tested, and the “Ventricular EC25” value was 100000 nM.

Tested on: Porcine atria myofibrils (atrial myosin ATPase)
Test: Myofibril ATPase assay, porcine atria myofibrils
Type: biochemical
Conditions: Y75 value (no ‡ mark); porcine atria myofibrils
Method in brief: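 Coupled PK-LDH reaction links ADP from myosin ATPase to NADH loss, read at 340 nm every 1.5-2 min for 75 min. Slopes (mAU/min) normalized to vehicle-only wells (100%) and fit to a 4-parameter logistic; Y75 is the concentration cutting activity by 25%, Y125 is reported for activators.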

Compared with `Cc1c(CC(=O)N[C@H](C)c2ncc(C#N)cc2F)c(=O)[nH]c2ccc(F)c(Cl)c12` (single isomer, unassigned) [compound 2051], `Cc1c(CC(=O)N[C@H](C)c2ncc(C#N)cc2F)c(=O)[nH]c2cc(F)c(F)cc12` [compound 1104] is 3.1-fold lower in “Atrial EC25” value: 430 nM for the first, 140 nM for the second.

Going from `Cc1ccncc1[C@H](C)NC(=O)Cc1c(C)c2c(C)c(F)ccc2[nH]c1=O` [compound 1047] to `Cc1c(CC(=O)N[C@@H](C)c2ccc(C#N)cc2F)c(=O)[nH]c2ccc(F)c(C(F)(F)F)c12` [compound 38], the “Atrial EC25” value falls from 100000 nM to 30 nM (3300-fold).

Going from `C[C@H](NC(=O)C1(c2cc3c(F)c(F)ccc3[nH]c2=O)CC1)c1nccc(C#N)n1` (single isomer, unassigned) [compound 2506] to `Cc1c(C2(C(=O)N[C@H](C)c3cc(C#N)ccn3)CC2)c(=O)[nH]c2ccc(F)c(F)c12` (single isomer, unassigned) [compound 2539], the “Atrial EC25” value falls from 100000 nM to 2760 nM (36-fold).

First: Cc1c(C(C)C(=O)N[C@@H](C)c2ccc(F)cc2F)c(=O)[nH]c2ccc(F)cc12 (stereo partly drawn) [compound 127]
Second: CC(C(=O)N[C@@H](C)c1ccc(F)cc1F)c1cc2c(Br)cccc2[nH]c1=O (stereo partly drawn) [compound 94]
The “Atrial EC25” value of the first is 36-fold lower: 190 nM for the first, 6810 nM for the second.

Compared with `Cc1c(C2(C(=O)N[C@@H](C)c3ncc(C#N)cn3)CC2)c(=O)[nH]c2ccc(F)c(C#N)c12` (single isomer, unassigned) [compound 2532], `Cc1c(C2(C(=O)N[C@@H](C)c3ncc(C#N)cc3F)CC2)c(=O)[nH]c2ccc(F)cc12` (single isomer, unassigned) [compound 2597] is 9.9-fold lower in “Atrial EC25” value: 890 nM for the first, 90 nM for the second.

First: Cc1nc(C#N)cnc1[C@@H](C)NC(=O)Cc1cc2cc(F)c(F)cc2[nH]c1=O (single isomer, unassigned) [compound 5]
Second: Cc1nc(C#N)cnc1[C@@H](C)NC(=O)Cc1c(C)c2cc(F)ccc2[nH]c1=O [compound 1068]
The “Atrial EC25” value of the first is 21-fold higher: 1450 nM for the first, 70 nM for the second.

Going from `Cc1c(CC(=O)N[C@H](C)c2cnc(C#N)nc2)c(=O)[nH]c2cc(F)c(F)cc12` (single isomer, unassigned) [compound 2074] to `C[C@H](NC(=O)Cc1c(C#N)c2cc(F)ccc2[nH]c1=O)c1ncc(C#N)cc1F` [compound 1095], the “Atrial EC25” value falls from 9010 nM to 180 nM (50-fold).

For `C[C@@H](NC(=O)Cc1c(C2CC2)c2c(F)c(F)ccc2[nH]c1=O)c1ccc(C#N)nn1` (single isomer, unassigned) [compound 2065], the “Atrial EC25” value was 100000 nM.

Tested on: Rabbit Psoas myofibrils (skeletal myosin ATPase)
Test: Myofibril ATPase assay, rabbit psoas (skeletal) myofibrils
Type: biochemical
Conditions: Y75 value (no ‡ mark); rabbit psoas myofibrils
Method in brief: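 Rabbit psoas skeletal myofibrils in PIPES/CaCl2/EGTA pCa buffer, pH 7.0. ATPase rate followed by PK-LDH-coupled NADH loss at 340 nm, read every 1.5–2 min for 75 min. Slopes normalized to vehicle (100%) and fitted to a 4-parameter logistic; values are Y75 (25% inhibition) or Y125 (25% activation) concentrations.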

First: Cc1c(CC(=O)N[C@H](C)c2ncc(C#N)cc2F)c(=O)[nH]c2ccc(F)c(Cl)c12 (single isomer, unassigned) [compound 2051]
Second: Cc1c(CC(=O)N[C@H](C)c2ncc(C#N)cc2F)c(=O)[nH]c2cc(F)c(F)cc12 [compound 1104]
The “Skeletal EC25” value of the first is 5.3-fold higher: 160 nM for the first, 30 nM for the second.

Compared with `Cc1ccncc1[C@H](C)NC(=O)Cc1c(C)c2c(C)c(F)ccc2[nH]c1=O` [compound 1047], `Cc1c(CC(=O)N[C@@H](C)c2ccc(C#N)cc2F)c(=O)[nH]c2ccc(F)c(C(F)(F)F)c12` [compound 38] is 5000-fold lower in “Skeletal EC25” value: 100000 nM for the first, 20 nM for the second.

`C[C@H](NC(=O)C1(c2cc3c(F)c(F)ccc3[nH]c2=O)CC1)c1nccc(C#N)n1` (single isomer, unassigned) [compound 2506] and `Cc1c(C2(C(=O)N[C@H](C)c3cc(C#N)ccn3)CC2)c(=O)[nH]c2ccc(F)c(F)c12` (single isomer, unassigned) [compound 2539] are the same in “Skeletal EC25” value: 100000 nM for the first, 100000 nM for the second.

`Cc1c(C(C)C(=O)N[C@@H](C)c2ccc(F)cc2F)c(=O)[nH]c2ccc(F)cc12` (stereo partly drawn) [compound 127] and `CC(C(=O)N[C@@H](C)c1ccc(F)cc1F)c1cc2c(Br)cccc2[nH]c1=O` (stereo partly drawn) [compound 94] are within 1.5-fold of each other in “Skeletal EC25” value: 170 nM for the first, 220 nM for the second.

Compared with `Cc1c(C2(C(=O)N[C@@H](C)c3ncc(C#N)cn3)CC2)c(=O)[nH]c2ccc(F)c(C#N)c12` (single isomer, unassigned) [compound 2532], `Cc1c(C2(C(=O)N[C@@H](C)c3ncc(C#N)cc3F)CC2)c(=O)[nH]c2ccc(F)cc12` (single isomer, unassigned) [compound 2597] is 12-fold lower in “Skeletal EC25” value: 1490 nM for the first, 120 nM for the second.

Going from `Cc1nc(C#N)cnc1[C@@H](C)NC(=O)Cc1cc2cc(F)c(F)cc2[nH]c1=O` (single isomer, unassigned) [compound 5] to `Cc1nc(C#N)cnc1[C@@H](C)NC(=O)Cc1c(C)c2cc(F)ccc2[nH]c1=O` [compound 1068], the “Skeletal EC25” value falls from 3600 nM to 120 nM (30-fold).

Going from `Cc1c(CC(=O)N[C@H](C)c2cnc(C#N)nc2)c(=O)[nH]c2cc(F)c(F)cc12` (single isomer, unassigned) [compound 2074] to `C[C@H](NC(=O)Cc1c(C#N)c2cc(F)ccc2[nH]c1=O)c1ncc(C#N)cc1F` [compound 1095], the “Skeletal EC25” value falls from 4030 nM to 60 nM (67-fold).

In the case of `C[C@@H](NC(=O)Cc1c(C2CC2)c2c(F)c(F)ccc2[nH]c1=O)c1ccc(C#N)nn1` (single isomer, unassigned) [compound 2065], the “Skeletal EC25” value is reported as 1100 nM.
